Test results published in US12059413B2, “Methods of inhibiting viruses using compositions targeting TSG101-ubiquitin interaction” (The Research Foundation for the State University of New York, priority 2016, dated 2024).

What was measured:
Tsg101 UEV domain [1] = molecular target: T1, Tsg101 UEV domain (Homo sapiens, UniProt Q99816); experiment: NMR / LC-MS binding of compound to Tsg101 UEV domain
T1 construct: Tsg101 UEV domain (residues 2-145) was encoded in a pET-28b vector; His6-TEV site (N, cleaved yes); made in house; host or cells: E. coli Rosetta 2 (DE3) pLysS
T1 sequence (Q99816 2-145): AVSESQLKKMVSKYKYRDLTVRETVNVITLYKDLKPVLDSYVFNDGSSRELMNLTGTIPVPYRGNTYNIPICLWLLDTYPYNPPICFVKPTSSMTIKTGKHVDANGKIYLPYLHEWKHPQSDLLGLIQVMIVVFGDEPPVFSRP
Procedure: N16 (20 mM solution, DMSO) was added to Tsg101 UEV domain in a 10:1 ratio (N16 excess).
For binding studies using NMR spectroscopy, the following complexes were made: Tsg101 UEV-N16, UEV-PTAP, UEV-Ub, UEV-N16-PTAP, and UEV-N16-Ub, all in Tsg101 NMR buffer: 20 mM potassium phosphate, 50 mM NaCl, pH 5.8, with UEV concentration of 200 μM.

Tsg101 UEV domain [2] = molecular target: T1, Tsg101 UEV domain; experiment: Tsg101 melting curves with compounds, relative fluorescence (RFU) shift; type: binding; settings: at 20 uM
Procedure: FIG. 13B. TSG101 binding of prazole compounds. Melting curves of TSG101 with various prazole compounds assayed by relative fluorescence (RFU) shift. Two control compounds, K21 and N20, had no effect at 40 μM on the Tsg101 melting curve.
FIG. 14A-F. The ubiquitin E2 variant (UEV) domain of Tsg101 was purified by attaching it to an N-terminal His tag with a Tobacco Etch Virus nuclear-inclusion-a endopeptidase (TEV) cleavage site and isolating the tagged protein through two consecutive nickel columns. The first nickel column bound the Tsg101 with the His tag. Following cleavage of the His tag, Tsg101 flowed straight through the second column, removing any impurities from the cell lysate that also bound to the column in step 1, as well as the TEV protease enzyme.
F) Dose-dependence of Tsg101 normalized melting curves for N16 (top) and F15 (bottom). At same concentration, N16 shifts the melting curve to a greater extent to the left than F15. Specifically, at 20 uM, N16 caused a 12 degree Tm shift while F15 gave rise a 5 degree Tm shift. This difference correlated with the potency observed in the cell-based assay. The plot for N16 contains two control compounds, K21 and N20, which have no effect at 40 uM on the Tsg101 melting curve.

HIV-1 NL4-3 [3] = experiment: Viral particle production from 293T cells transfected with pNL4-3, p24 ELISA; type: cell-based
Procedure: (§1) FIG. 15A-D. N16 inhibits HIV-1 NL4-3 and Gag VLP production. A) Effect on virus production. Virus particles from N16-treated 293T cells transfected with pNL4-3 as determined by ELISA assay. Top, The compound was added 6 hr prior to DNA transfection and tissue culture media was harvested 24 hr later. Bottom, The compound was added at the indicated concentration 24 hr after DNA transfection and tissue culture media was harvested 24 hr later. Assay values were normalized to that of the DMSO carrier control. B) Effect on virus infectivity. Infectious viral particles per ng p24 as determined by MAGI assay. C) Left, Electron microscopy of particles at cell surface at 24 hr post-N16 addition; Right, Quantitative analysis of budding morphologies. Cells expressing WT- or P7L-NL4-3 were exposed to DMSO carrier or 50 μM N16. Arrows indicate emerging ‘Early’ buds. D) Effects on Gag VLP production. Top, Western blot analysis. Cells treated at the indicated concentration were transfected with DNA encoding Gag-HA. At the end of the treatment period, tissue culture media was removed for VLP isolation. […] Bottom, Quantitative analysis. […]
For production of virus particles, 293T cells were transfected with pNL4-3-ΔEnv and pIIIB Env3-1 plasmids and for virus-like particles (VLP), with pCMV-Gag-HA as previously described (Watanabe et al. (2013)). For specific infectivity, media-associated p24 was determined by ELISA (Immunodiagnostics, Inc.) and equivalent amounts of p24 were used to infect HeLa-CD4+-LTR-3 gal cells for infectivity measurement by the multinuclear activation of a galactosidase indicator (MAGI) assay. […] For cell-associated Gag analysis, cell pellets were lysed with either Triton X-100 or RIPA buffer with complete mini protease inhibitor cocktail (Roche) and analyzed by Western blotting. Protein bands were visualized using an infrared-based imaging system (Odyssey, LI-COR Biotechnology) and band intensities measured using the Li-Cor Odyssey software version 2.1.15. Virus particle release efficiency was calculated [VLP signal intensity/(VLP signal intensity+cell lysate signal intensity)]. […]

HIV-1 NL4-3 [4] = experiment: Specific virus infectivity by MAGI assay; type: cell-based; settings: higher concentrations required
Procedure: as §1, with “morphologies.” for “morphologies. Cells expressing WT- or P7L-NL4-3 were exposed to DMSO carrier or 50 μM N16. Arrows indicate emerging ‘Early’ buds. D) Effects on Gag VLP production. Top, Western blot analysis. Cells treated at the indicated concentration were transfected with DNA encoding Gag-HA. At the end of the treatment period, tissue culture media was removed for VLP isolation.”
For production of virus particles, 293T cells were transfected with pNL4-3-ΔEnv and pIIIB Env3-1 plasmids and for virus-like particles (VLP), with pCMV-Gag-HA as previously described (Watanabe et al. (2013)). For specific infectivity, media-associated p24 was determined by ELISA (Immunodiagnostics, Inc.) and equivalent amounts of p24 were used to infect HeLa-CD4+-LTR-3 gal cells for infectivity measurement by the multinuclear activation of a galactosidase indicator (MAGI) assay. […] Virus particle release efficiency was calculated [VLP signal intensity/(VLP signal intensity+cell lysate signal intensity)]. […]

Tsg101 = molecular target: T2, Tsg101 (Homo sapiens, UniProt Q99816); experiment: NWU screening / in vitro binding assay; settings: Esomeprazole and tenatoprazole compared
T2 sequence (Q99816 2-145 limits assumed): T1 sequence (Q99816 2-145)
Source text: Pantoprazole, Lansoprazole/Dexlansoprazole (dexlansoprazole is the active enantiomer of the racemic lansoprazole), and Rabeprazole were in the NWU screen but were not considered hits.

Compound	residue bound in Tsg101 UEV (NMR and fluorescence perturbances) (Tsg101 UEV domain [1])	time to complete formation of N16 UEV complex (Tsg101 UEV domain [1]; 10:1 N16 excess, chemical shift perturbations)	Tm shift of Tsg101 melting curve (Tsg101 UEV domain [2])	EC50 (HIV-1 NL4-3 [3]; Human immunodeficiency virus 1, NL43, HEK-293T, 6 h, N16 added six hours before transfection, 293T cells)	effect on budding when added 24 hr post-transfection (HIV-1 NL4-3 [3]; addition at 24 hr post-transfection, even at higher concentrations)	lowest concentration achieved in tissue culture assays under optimal conditions (HIV-1 NL4-3 [3]; c.f. FIG. 15)	specific infectivity of the virus (HIV-1 NL4-3 [4])	binding in the in vitro binding assay (Tsg101)
COc1ccc2[nH]c([S+]([O-])Cc3ncc(C)c(OC)c3C)nc2n1 (stereo not shown) [N16, tenatoprazole]	bind to residue C73	2 h	12 degree	25 to 50 µM	little effect	25 to 50 µM	diminished in dose-dependent fashion	
COc1ccc2nc([S@@+]([O-])Cc3ncc(C)c(OC)c3C)[nH]c2c1 [F15, esomeprazole]	bind to residue C73		5 degree					comparable binding
